Assay results as given in PubChem BioAssay AID330 (DTP/NCI, 2004).
Values joined by “and” are separate entries in the source; they are usually repeats but may differ in a detail not shown here. Identical values can stand only once. Inconclusive results and toxic doses are left out.

System: P388 leukemia ip, CD2F1 mice, survival T/C
Test: NCI In Vivo Anticancer Drug Screen. Data for tumor model P388 Leukemia (intraperitoneal) in CD2F1 (CDF1) mice
Conditions: endpoint: median survival time, higher = longer survival
Method in brief: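 Mice carrying the transplanted tumor received test compound or vehicle. Survival was recorded in each group, and the value is the treated-group measurement divided by that of the vehicle-treated control group.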

[1] = dose: 50.0 mg/kg/injection, schedule: Q01DX005 (ip), vehicle: saline with Tween-80
[2] = dose: 100.0 mg/kg/injection, schedule: Q01DX009 (ip), vehicle: saline with Tween-80
[3] = dose: 200.0 mg/kg/injection, schedule: Q01DX005 (ip), vehicle: saline

CCOC(=O)Nc1ccc(C2OCCS2)cc1 (stereo not given)
T/C [1]: 86 % of control
T/C (dose: 200.0 mg/kg/injection, schedule: Q01DX005 (ip), vehicle: saline with Tween-80): 90 % of control

CCCCC1SC2=NCCCN2C1(O)c1ccc(Cl)cc1 (stereo not given)
T/C (dose: 50.0 mg/kg/injection, schedule: Q01DX009 (ip), vehicle: saline with Tween-80): 105 % of control
T/C [2]: 106 % of control

C1=Nc2ccccc2N=Cc2ccccc2NCCNc2ccccc21
T/C (dose: 6.25 mg/kg/injection, schedule: Q01DX009 (ip), vehicle: saline): 98 % of control
T/C (dose: 12.5 mg/kg/injection, schedule: Q01DX009 (ip), vehicle: saline): 101 % of control
T/C (dose: 25.0 mg/kg/injection, schedule: Q01DX009 (ip), vehicle: saline): 92 % of control

CCCCCCCCCCC1OCN2CC(CC)CCC12 (stereo not given)
T/C (dose: 50.0 mg/kg/injection, schedule: Q01DX005 (ip), vehicle: saline): 100 % of control
T/C (dose: 100.0 mg/kg/injection, schedule: Q01DX005 (ip), vehicle: saline): 101 % of control
T/C [3]: 105 % of control

COC(=O)Cc1ccccc1-n1nccc1S(C)=O (stereo not given)
T/C (dose: 60.0 mg/kg/injection, schedule: Q01DX005 (ip), vehicle: saline with Tween-80): 109 % of control
T/C (dose: 120.0 mg/kg/injection, schedule: Q01DX005 (ip), vehicle: saline with Tween-80): 104 % of control
T/C (dose: 240.0 mg/kg/injection, schedule: Q01DX005 (ip), vehicle: saline with Tween-80): 106 % of control

O=NNc1ccc2cc3ccc(NN=O)cc3nc2c1
T/C (dose: 25.0 mg/kg/injection, schedule: Q01DX009 (ip), vehicle: water): 122 % of control
T/C (dose: 50.0 mg/kg/injection, schedule: Q01DX009 (ip), vehicle: water): 106 % of control and 97 % of control

O=C1OCC2=C1CN1CCc3cc4c(cc3C1C2)OCO4 (stereo not given)
T/C (dose: 0.63 mg/kg/injection, schedule: Q01DX009 (ip), vehicle: distilled water + Tween-80): 94 % of control
T/C (dose: 1.25 mg/kg/injection, schedule: Q01DX009 (ip), vehicle: distilled water + Tween-80): 103 % of control
T/C (dose: 2.5 mg/kg/injection, schedule: Q01DX009 (ip), vehicle: distilled water + Tween-80): 112 % of control
T/C (dose: 5.0 mg/kg/injection, schedule: Q01DX009 (ip), vehicle: distilled water + Tween-80): 103 % of control
T/C (dose: 10.0 mg/kg/injection, schedule: Q01DX009 (ip), vehicle: distilled water + Tween-80): 103 % of control
T/C (dose: 20.0 mg/kg/injection, schedule: Q01DX009 (ip), vehicle: distilled water + Tween-80): 94 % of control

O=C1CSC(=Nc2ccccc2)N1c1ccc(-n2c(-c3ccc(N=Cc4ccc(Cl)cc4)cc3)nc3ccccc3c2=O)cc1
T/C (dose: 60.0 mg/kg/injection, schedule: Q01DX005 (ip), vehicle: Klucel (hydroxypropylcellulose) (HPC)): 92 % of control

C=CCCCn1nnc2ccccc21
T/C (dose: 100.0 mg/kg/injection, schedule: Q04DX003 (ip), vehicle: saline with Tween-80): 102 % of control
T/C (dose: 200.0 mg/kg/injection, schedule: Q04DX003 (ip), vehicle: saline with Tween-80): 94 % of control
T/C (dose: 400.0 mg/kg/injection, schedule: Q04DX003 (ip), vehicle: saline with Tween-80): 86 % of control

CC1CCCCN1CCCNC(=O)Nc1ccc(Cc2ccc(NC(=O)NCCCN3CCCCC3C)cc2)cc1 (stereo not given)
T/C (dose: 0.79 mg/kg/injection, schedule: Q01DX009 (ip), vehicle: Klucel (hydroxypropylcellulose) (HPC)): 95 % of control
T/C (dose: 1.56 mg/kg/injection, schedule: Q01DX009 (ip), vehicle: Klucel (hydroxypropylcellulose) (HPC)): 97 % of control

CC(C)C([N+](C)(C)C)P(=O)([O-])O (stereo not given)
T/C [2]: 100 % of control
T/C (dose: 200.0 mg/kg/injection, schedule: Q01DX009 (ip), vehicle: saline with Tween-80): 90 % of control

CC1(C)OCC(C2OC3OC(C)(C)OC3/C2=N/NC(=O)c2cc3cc(OCc4ccccc4)ccc3[nH]2)O1 (stereo not given)
T/C (dose: 6.25 mg/kg/injection, schedule: Q01DX005 (ip), vehicle: saline): 93 % of control
T/C (dose: 12.5 mg/kg/injection, schedule: Q01DX005 (ip), vehicle: saline): 93 % of control
T/C (dose: 25.0 mg/kg/injection, schedule: Q01DX005 (ip), vehicle: saline): 88 % of control
T/C [3]: 94 % of control

NC/C(=N\Nc1ccc([N+](=O)[O-])cc1[N+](=O)[O-])c1ccccc1
T/C (dose: 100.0 mg/kg/injection, schedule: Q04DX003 (ip), vehicle: saline): 100 % of control
T/C (dose: 200.0 mg/kg/injection, schedule: Q04DX003 (ip), vehicle: saline): 113 % of control
T/C (dose: 400.0 mg/kg/injection, schedule: Q04DX003 (ip), vehicle: saline): 95 % of control

OC1(c2cccc(Cl)c2)C2=NCCCN2c2ccccc21 (stereo not given)
T/C (dose: 6.25 mg/kg/injection, schedule: Q01DX009 (ip), vehicle: saline with Tween-80): 95 % of control
T/C (dose: 12.5 mg/kg/injection, schedule: Q01DX009 (ip), vehicle: saline with Tween-80): 91 % of control

Nc1nnc(SCCCCCCSc2nnc(N)s2)s1
T/C [1]: 86 % of control
T/C (dose: 100.0 mg/kg/injection, schedule: Q01DX005 (ip), vehicle: saline with Tween-80): 86 % of control
